Numbers after ± are expanded uncertainties.
Settings: 101.33 kPa, Liquid

CCOC(=O)CC(=O)OCC [diethyl 1,3-propanedioate]
Settings | mass density [kg/m3]
278.15 K | 1071.04 ± 0.12
288.14 K | 1060.33 ± 0.11
298.15 K | 1049.6 ± 0.11
313.15 K | 1033.5 ± 0.093
328.15 K | 1017.34 ± 0.081
338.15 K | 1006.5 ± 0.073
348.15 K | 995.631 ± 0.071
358.15 K | 984.697 ± 0.08

Reference: the NIST ThermoML archive (doi:10.1021/je9003806)
